Measurements taken from ChEMBL document CHEMBL1201862, “PubChem BioAssay data set” (2004).
“And” between values parts separate entries of the source, which are not always exact repeats. Identical values can stand only once.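 Exposure lasted 48 hours, with cells grown in 96-well plates and compounds tested at five concentrations. At the GI50, growth is halved.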 The source made the active and inactive calls. No stated cut-off is given here; in the data, active = GI50 up to about 1.1 µM and inactive = higher.

What was measured:
Assay in all cases: DTP human tumour cell line panel, 48 h
A549 = test system: A549
COLO 205 = test system: COLO 205
HCC 2998 = test system: HCC 2998
HCT-116 = test system: HCT-116
HOP-62 = test system: HOP-62
KM12 = test system: KM12
M14 = test system: M14
MCF7 = test system: MCF7
MDA-MB-435 = test system: MDA-MB-435
NCI-H23 = test system: NCI-H23
SF-268 = test system: SF-268
SF-295 = test system: SF-295
SK-MEL-28 = test system: SK-MEL-28
SK-OV-3 = test system: SK-OV-3
SN12C = test system: SN12C
SNB-19 = test system: SNB-19
SW-620 = test system: SW-620
TK-10 = test system: TK-10
UACC-257 = test system: UACC-257
UO-31 = test system: UO-31

Measured: GI50

CC1=C(Nc2c(C)cc(O)cc2O)C(=O)C=c2oc3c(c21)C(C)=C(Nc1c(C)cc(O)cc1O)C(=O)C=3
inactive: A549 38.5 µM | COLO 205 20.8 µM | HCC 2998 23.2 µM | HCT-116 26.5 µM | HOP-62 32.8 µM | KM12 28.9 µM | M14 28.8 µM | MCF7 26.5 µM | MDA-MB-435 15.9 µM | NCI-H23 20.3 µM | SF-268 45.5 µM | SF-295 24.4 µM | SK-MEL-28 52.5 µM | SK-OV-3 45.7 µM | SN12C 30.4 µM | SNB-19 35.8 µM | SW-620 35.5 µM | TK-10 94.8 µM | UACC-257 29.8 µM | UO-31 50.8 µM

COC(=O)/C=C\C(C#N)(C#N)/N=C/c1sccc1C
inactive: A549 15 µM | COLO 205 1.22 µM | HCC 2998 15.2 µM | HCT-116 2.43 µM | HOP-62 14.7 µM | KM12 16.2 µM | M14 2.28 µM | MCF7 1.56 µM | MDA-MB-435 3.58 µM | NCI-H23 7.03 µM | SF-268 12.3 µM | SF-295 18.2 µM | SK-MEL-28 4.88 µM | SK-OV-3 18.4 µM | SN12C 8.59 µM | SNB-19 17.3 µM | SW-620 1.58 µM | TK-10 1.86 µM | UACC-257 11.1 µM | UO-31 1.77 µM

COC(=O)/C(=N/NC(N)=O)C(C(=O)C(=O)Nc1ccc(C)cc1)c1nc2ccc(C(=O)c3ccccc3)cc2nc1O (stereo not given)
inactive: A549 > 100 µM | COLO 205 > 100 µM | HCC 2998 34.2 µM | HCT-116 > 100 µM | HOP-62 > 100 µM | KM12 66.7 µM | M14 > 100 µM | MCF7 91.4 µM | MDA-MB-435 37 µM | NCI-H23 > 100 µM | SF-268 > 100 µM | SF-295 > 100 µM | SK-MEL-28 > 100 µM | SK-OV-3 > 100 µM | SN12C > 100 µM | SNB-19 > 100 µM | SW-620 > 100 µM | TK-10 > 100 µM | UACC-257 > 100 µM | UO-31 30.5 µM

CC(=O)NNc1nc(C)c(C(/C=C/c2ccccc2O)=N/N=C(N)N)s1
inactive: A549 > 100 µM | COLO 205 > 100 µM | HCC 2998 > 100 µM | HCT-116 > 100 µM | HOP-62 > 100 µM | KM12 > 100 µM | M14 > 100 µM | MCF7 > 100 µM | MDA-MB-435 > 100 µM | NCI-H23 > 100 µM | SF-268 > 100 µM | SF-295 > 100 µM | SK-MEL-28 > 100 µM | SK-OV-3 > 100 µM | SN12C > 100 µM | SNB-19 > 100 µM | SW-620 > 100 µM | TK-10 > 100 µM | UACC-257 > 100 µM | UO-31 > 100 µM

CCOC(=O)c1c(N2CCOCC2)[nH]c(=O)c(C(c2cccs2)c2c(O)c(C(=O)OCC)c(N3CCOCC3)[nH]c2=O)c1O
inactive: A549 > 100 µM | COLO 205 > 100 µM | HCC 2998 > 100 µM | HCT-116 > 100 µM | HOP-62 > 100 µM | KM12 > 100 µM | M14 > 100 µM | MCF7 > 100 µM | MDA-MB-435 > 100 µM | NCI-H23 > 100 µM | SF-268 > 100 µM | SF-295 > 100 µM | SK-MEL-28 > 100 µM | SK-OV-3 > 100 µM | SN12C > 100 µM | SNB-19 > 100 µM | SW-620 > 100 µM | TK-10 > 100 µM | UACC-257 > 100 µM | UO-31 > 100 µM

FC(F)(F)c1ccc2nc(Sc3ccccn3)cnc2c1
inactive: A549 38.8 µM | COLO 205 53.2 µM | HCC 2998 17.1 µM | HCT-116 44.3 µM | HOP-62 35.3 µM | KM12 88.7 µM | M14 48 µM | MCF7 74.8 µM | MDA-MB-435 58.1 µM | NCI-H23 28.4 µM | SF-268 49.2 µM | SF-295 60.1 µM | SK-MEL-28 > 100 µM | SK-OV-3 33.8 µM | SN12C 35.5 µM | SNB-19 24.2 µM | SW-620 34.4 µM | TK-10 31 µM | UACC-257 79.3 µM | UO-31 22.7 µM

O=C1N/C(=N/N=C\C(O)C(O)C(O)CO)N/C1=C/c1ccc(Cl)cc1 (stereo not given)
inactive: A549 71.8 µM | COLO 205 42.6 µM and 30.1 µM | HCC 2998 > 10 µM | HCT-116 43.9 µM and 46.2 µM | HOP-62 46.2 µM and 40.3 µM | KM12 29.9 µM and 37.2 µM | M14 25.9 µM | MCF7 29.2 µM | MDA-MB-435 59.4 µM and 43.8 µM | NCI-H23 30.3 µM and 42.8 µM | SF-268 27 µM and 30.3 µM | SF-295 41.5 µM | SK-MEL-28 > 100 µM and 64.6 µM | SK-OV-3 63.5 µM | SN12C 69 µM and 80.5 µM | SNB-19 27 µM and 29 µM | SW-620 60.5 µM and 52.1 µM | TK-10 > 100 µM and 89.7 µM | UACC-257 > 100 µM | UO-31 28.8 µM and 31.7 µM

CN1CCC23c4c5ccc(Oc6nnnn6-c6ccccc6)c4OC2c2[nH]c4ccccc4c2CC3(O)C1C5 (stereo not given)
inactive: A549 3.96 µM | COLO 205 2.29 µM | HCC 2998 1.81 µM | HCT-116 1.83 µM | HOP-62 3.24 µM | KM12 2.82 µM | M14 1.85 µM | MCF7 2.27 µM | MDA-MB-435 4.01 µM | NCI-H23 16.3 µM | SF-268 6.89 µM | SF-295 3.95 µM | SK-MEL-28 2.1 µM | SK-OV-3 9.66 µM | SN12C 2.75 µM | SNB-19 7.66 µM | SW-620 2.44 µM | TK-10 1.87 µM | UACC-257 1.83 µM | UO-31 1.75 µM

COC(=O)C1(C#N)C(C)(C)N=C(c2ccccc2)C12CCCCC2 (stereo not given)
inactive: A549 85.7 µM | COLO 205 > 100 µM | HCC 2998 > 100 µM | HCT-116 > 100 µM | HOP-62 > 100 µM | KM12 > 100 µM | M14 > 100 µM | MCF7 > 100 µM | MDA-MB-435 > 100 µM | NCI-H23 > 100 µM | SF-268 > 100 µM | SF-295 56.4 µM | SK-MEL-28 82 µM | SK-OV-3 > 100 µM | SN12C > 100 µM | SNB-19 > 100 µM | SW-620 > 100 µM | TK-10 > 100 µM | UACC-257 > 100 µM | UO-31 75.7 µM

Cc1ccc([C@H]2CC(=O)C[C@H](c3ccc(C)cc3)C23C(=O)c2ccccc2C3=O)cc1
inactive: A549 43.2 µM | COLO 205 37.2 µM | HCC 2998 57.3 µM | HCT-116 34.6 µM | HOP-62 22.1 µM | KM12 > 100 µM | M14 27.8 µM | MCF7 17 µM | MDA-MB-435 41.3 µM | NCI-H23 > 100 µM | SF-268 23 µM | SF-295 21.1 µM | SK-MEL-28 > 100 µM | SK-OV-3 31.6 µM | SN12C 48.4 µM | SNB-19 26.9 µM | SW-620 94.6 µM | TK-10 22.2 µM | UACC-257 15.4 µM | UO-31 > 100 µM

CC(=O)N1N(c2ccc([N+](=O)[O-])cc2)C(=O)C1(C)C
inactive: A549 > 10 µM | COLO 205 15.5 µM | HCC 2998 15.8 µM | HOP-62 19.3 µM | KM12 16.7 µM | M14 10.8 µM | MCF7 23.6 µM | MDA-MB-435 20.6 µM | NCI-H23 16.7 µM | SF-268 29.4 µM | SF-295 31.4 µM | SK-MEL-28 17.9 µM | SK-OV-3 48 µM | SN12C 16.5 µM | SNB-19 50.4 µM | SW-620 13.4 µM | TK-10 17.1 µM | UO-31 17.1 µM

CCc1n[nH]c(=O)n1N1C(=O)CCC1=O
inactive: A549 > 100 µM | COLO 205 > 100 µM | HCC 2998 > 100 µM | HCT-116 > 100 µM | HOP-62 > 100 µM | KM12 > 100 µM | M14 > 100 µM | MCF7 > 100 µM | MDA-MB-435 > 100 µM | SF-268 > 100 µM | SF-295 > 100 µM | SK-MEL-28 > 100 µM | SK-OV-3 > 100 µM | SN12C > 100 µM | SNB-19 > 100 µM | SW-620 > 100 µM | TK-10 > 100 µM | UACC-257 > 100 µM | UO-31 > 100 µM

CCCNC(=S)N/C=C1\C(=O)Nc2ccccc2C1=O
inactive: A549 > 100 µM | COLO 205 > 100 µM | HCC 2998 > 100 µM | HCT-116 > 100 µM | HOP-62 > 100 µM | KM12 > 100 µM | M14 > 100 µM | MCF7 > 100 µM | MDA-MB-435 > 100 µM | NCI-H23 > 100 µM | SF-268 > 100 µM | SF-295 > 100 µM | SK-OV-3 > 100 µM | SN12C > 100 µM | SNB-19 > 100 µM | SW-620 > 100 µM | TK-10 > 100 µM | UACC-257 > 100 µM | UO-31 > 100 µM

O=C1CCC2(CCO1)OCCO2
inactive: A549 > 100 µM | HCC 2998 > 100 µM | HCT-116 > 100 µM | HOP-62 > 100 µM | KM12 > 100 µM | M14 > 100 µM | MCF7 > 100 µM | MDA-MB-435 > 100 µM | NCI-H23 > 100 µM | SF-268 > 100 µM | SF-295 > 100 µM | SK-MEL-28 > 100 µM | SK-OV-3 > 100 µM | SN12C > 100 µM | SNB-19 > 100 µM | SW-620 > 100 µM | TK-10 > 100 µM | UACC-257 > 100 µM | UO-31 > 100 µM
